Measurements taken from PubChem BioAssay AID330 (DTP/NCI, 2004).
Toxic doses and inconclusive results are not listed. How the source made its calls: active means survival T/C of 150% or more; inactive means T/C below 125% in these data. Peptide text beside a SMILES is read from it. * marks the point of attachment. Cbz = O=C(OCc1ccccc1)*; CH2Cl = ClC*

Tested on: P388 leukemia ip, CD2F1 mice, survival T/C
Assay: NCI In Vivo Anticancer Drug Screen. Data for tumor model P388 Leukemia (intraperitoneal) in CD2F1 (CDF1) mice
Details: endpoint: median survival time, higher = longer survival
How it was run: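 Mice carrying the transplanted tumor received test compound or vehicle. Survival was recorded in each group, and the value is the treated-group measurement divided by that of the vehicle-treated control group.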

[1] = dose: 120.0 mg/kg/injection, schedule: Q01DX005 (ip), vehicle: Klucel (hydroxypropylcellulose) (HPC)
[2] = dose: 50.0 mg/kg/injection, schedule: Q01DX005 (ip), vehicle: saline with Tween-80
[3] = dose: 100.0 mg/kg/injection, schedule: Q01DX005 (ip), vehicle: saline with Tween-80
[4] = dose: 200.0 mg/kg/injection, schedule: Q01DX005 (ip), vehicle: saline with Tween-80
[5] = dose: 50.0 mg/kg/injection, schedule: Q01DX005 (ip), vehicle: Klucel (hydroxypropylcellulose) (HPC)
[6] = dose: 12.5 mg/kg/injection, schedule: Q01DX009 (ip), vehicle: saline
[7] = dose: 25.0 mg/kg/injection, schedule: Q01DX009 (ip), vehicle: saline
[8] = dose: 50.0 mg/kg/injection, schedule: Q01DX009 (ip), vehicle: saline
[9] = dose: 100.0 mg/kg/injection, schedule: Q01DX009 (ip), vehicle: saline
[10] = dose: 200.0 mg/kg/injection, schedule: Q01DX009 (ip), vehicle: saline
[11] = dose: 60.0 mg/kg/injection, schedule: Q01DX005 (ip), vehicle: saline with Tween-80
[12] = dose: 120.0 mg/kg/injection, schedule: Q01DX005 (ip), vehicle: saline with Tween-80
[13] = dose: 240.0 mg/kg/injection, schedule: Q01DX005 (ip), vehicle: saline with Tween-80
[14] = dose: 50.0 mg/kg/injection, schedule: Q01DX009 (ip), vehicle: saline with Tween-80

Measured: T/C

COc1ccc(-c2cc(=O)c3cc(C)c(C)c(C#N)c3o2)cc1
inactive: dose: 3.75 mg/kg/injection, schedule: Q01DX005 (ip), vehicle: Klucel (hydroxypropylcellulose) (HPC) 120 % of control | dose: 7.5 mg/kg/injection, schedule: Q01DX005 (ip), vehicle: Klucel (hydroxypropylcellulose) (HPC) 93 % of control | dose: 15.0 mg/kg/injection, schedule: Q01DX005 (ip), vehicle: Klucel (hydroxypropylcellulose) (HPC) 109 % of control | [1] 86 % of control

CCC(CC)(C(=O)Nc1ccc2c(c1)c(=O)c1ccccc1n2C)C(=O)Nc1ccc2c(c1)c(=O)c1ccccc1n2C
inactive: [2] 100 % of control | [3] 101 % of control | [4] 105 % of control

CCOC(=O)Nc1cc(Cl)c2[nH]cnc2n1
inactive: [5] 97 % of control | dose: 100.0 mg/kg/injection, schedule: Q01DX005 (ip), vehicle: Klucel (hydroxypropylcellulose) (HPC) 101 % of control | dose: 200.0 mg/kg/injection, schedule: Q01DX005 (ip), vehicle: Klucel (hydroxypropylcellulose) (HPC) 108 % of control

O=CN1CCCC1Cc1ccc2ccccc2c1 (centres undefined)
inactive: dose: 50.0 mg/kg/injection, schedule: Q01DX001 (ip), vehicle: Klucel (hydroxypropylcellulose) (HPC) 107 % of control | dose: 100.0 mg/kg/injection, schedule: Q01DX001 (ip), vehicle: Klucel (hydroxypropylcellulose) (HPC) 98 % of control | dose: 200.0 mg/kg/injection, schedule: Q01DX001 (ip), vehicle: Klucel (hydroxypropylcellulose) (HPC) 101 % of control

C=CN=NNc1ccccc1
inactive: dose: 100.0 mg/kg/injection, schedule: Q04DX003 (ip), vehicle: saline + Tween-80 + alcohol 105 % of control | dose: 200.0 mg/kg/injection, schedule: Q04DX003 (ip), vehicle: saline + Tween-80 + alcohol 106 % of control | dose: 400.0 mg/kg/injection, schedule: Q04DX003 (ip), vehicle: saline + Tween-80 + alcohol 110 % of control

CC(=O)Nc1ccc(S(=O)(=O)NCCSS(=O)(=O)O)cc1
inactive: [2] 101 % of control | [3] 109 % of control | [4] 109 % of control

CC(C)CC(NC(=O)OCc1ccccc1)C(=O)NC(Cc1ccccc1)C(=O)CCl (stereo not drawn) (Cbz-Leu-Phe-CH2Cl; configuration not given here)
inactive: dose: 6.25 mg/kg/injection, schedule: Q01DX009 (ip), vehicle: saline 107 % of control | [6] 106 % of control | [7] 111 % of control | [8] 113 % of control | [9] 120 % of control

[NH-]CC(=O)O.[NH-]CC(=O)O.[NH-]CC(=O)O.[NH-]CC(=O)O.[Pt+4]
inactive: dose: 12.5 mg/kg/injection, schedule: Q01DX009 (ip), vehicle: distilled water + Tween-80 93 % of control | dose: 25.0 mg/kg/injection, schedule: Q01DX009 (ip), vehicle: distilled water + Tween-80 94 % of control | dose: 50.0 mg/kg/injection, schedule: Q01DX009 (ip), vehicle: distilled water + Tween-80 101 % of control | dose: 100.0 mg/kg/injection, schedule: Q01DX009 (ip), vehicle: distilled water + Tween-80 104 % of control | dose: 200.0 mg/kg/injection, schedule: Q01DX009 (ip), vehicle: distilled water + Tween-80 104 % of control

CC(=O)OCC12C(=O)CC(C)C3(CC(c4ccoc4)OC3=O)C1(C)CCCC21CO1 (centres undefined)
inactive: dose: 3.12 mg/kg/injection, schedule: Q01DX005 (ip), vehicle: Klucel (hydroxypropylcellulose) (HPC) 97 % of control | dose: 6.25 mg/kg/injection, schedule: Q01DX005 (ip), vehicle: Klucel (hydroxypropylcellulose) (HPC) 97 % of control | dose: 12.5 mg/kg/injection, schedule: Q01DX005 (ip), vehicle: Klucel (hydroxypropylcellulose) (HPC) 99 % of control | dose: 25.0 mg/kg/injection, schedule: Q01DX005 (ip), vehicle: Klucel (hydroxypropylcellulose) (HPC) 92 % of control | [5] 94 % of control

Nc1nc(N)nc(CCc2nc(N)nc(N)n2)n1
inactive: [8] 103 % of control | [9] 88 % of control | [10] 98 % of control

CCCCCCCCOC(=O)c1ccccc1OP(=O)(N(C)C)N(C)C
inactive: dose: 50.0 mg/kg/injection, schedule: Q01DX005 (ip), vehicle: saline 107 % of control | dose: 100.0 mg/kg/injection, schedule: Q01DX005 (ip), vehicle: saline 112 % of control | dose: 200.0 mg/kg/injection, schedule: Q01DX005 (ip), vehicle: saline 100 % of control

Cc1[nH]n(-c2ccc(S(=O)(=O)O)cc2)c(=O)c1N=Nc1ccccc1
inactive: [11] 96 % of control | [12] 100 % of control | [13] 90 % of control

N=C(N)N1CCNc2ccccc2C1
inactive: dose: 25.0 mg/kg/injection, schedule: Q04DX003 (ip), vehicle: saline with Tween-80 105 % of control | dose: 50.0 mg/kg/injection, schedule: Q04DX003 (ip), vehicle: saline with Tween-80 99 % of control | dose: 100.0 mg/kg/injection, schedule: Q04DX003 (ip), vehicle: saline with Tween-80 104 % of control

CC(c1ccc(O)cc1)c1cc2c(cc1OCCO)OCO2 (centres undefined)
inactive: [2] 94 % of control | [3] 91 % of control | [4] 92 % of control

Oc1ccccc1-c1cc(-c2ccccc2)nc(NCCCCCCCCNc2nc(-c3ccccc3)cc(-c3ccccc3O)n2)n1
inactive: dose: 100.0 mg/kg/injection, schedule: Q04DX003 (ip), vehicle: saline 92 % of control | dose: 200.0 mg/kg/injection, schedule: Q04DX003 (ip), vehicle: saline 94 % of control | dose: 400.0 mg/kg/injection, schedule: Q04DX003 (ip), vehicle: saline 88 % of control

COCc1ccc(C(N)C(=O)O)cc1 (centres undefined)
inactive: dose: 100.0 mg/kg/injection, schedule: Q01DX001 (ip), vehicle: saline with Tween-80 92 % of control | dose: 200.0 mg/kg/injection, schedule: Q01DX001 (ip), vehicle: saline with Tween-80 108 % of control

N#CC[n+]1ccc2ccccc2c1
inactive: [6] 105 % of control | [7] 99 % of control | [8] 101 % of control

C[NH-].C[NH-].[Cl][Pt+2][Cl]
inactive: [6] 113 % of control

O=C1c2ccccc2C(=O)N1S(=O)(=O)C/C=C/CCl
inactive: dose: 12.5 mg/kg/injection, schedule: Q01DX009 (ip), vehicle: saline with Tween-80 94 % of control | dose: 25.0 mg/kg/injection, schedule: Q01DX009 (ip), vehicle: saline with Tween-80 97 % of control | [14] 105 % of control | [8] 110 % of control | [9] 103 % of control | [10] 108 % of control

CC(C)OC(=S)NC(=O)c1ccccc1
inactive: [14] 109 % of control | dose: 100.0 mg/kg/injection, schedule: Q01DX009 (ip), vehicle: saline with Tween-80 100 % of control | dose: 200.0 mg/kg/injection, schedule: Q01DX009 (ip), vehicle: saline with Tween-80 103 % of control | dose: 400.0 mg/kg/injection, schedule: Q01DX009 (ip), vehicle: saline with Tween-80 108 % of control

O=C1CSC(c2cc([N+](=O)[O-])ccc2Cl)N1c1nncs1 (centres undefined)
inactive: dose: 60.0 mg/kg/injection, schedule: Q01DX005 (ip), vehicle: Klucel (hydroxypropylcellulose) (HPC) 108 % of control | [1] 105 % of control | dose: 240.0 mg/kg/injection, schedule: Q01DX005 (ip), vehicle: Klucel (hydroxypropylcellulose) (HPC) 98 % of control

O=c1c(Cc2ccccc2)coc2ccccc12
inactive: [11] 106 % of control | [12] 100 % of control | [13] 103 % of control
